{"source": "patent US8106155B2", "about": "“Test kit for determining process for determining antibiotics containing a beta-lactam ring in a biological fluid” (Neogen Corporation, priority 1998, dated 2012)", "key": {"[1]": {"target": "T1, BlaR-CTD receptor (Bacillus licheniformis, UniProt P12287)", "T1 construct": "uses the BlaR-CTD receptor coupled to gold beads", "T1 sequence (P12287 354-601)": "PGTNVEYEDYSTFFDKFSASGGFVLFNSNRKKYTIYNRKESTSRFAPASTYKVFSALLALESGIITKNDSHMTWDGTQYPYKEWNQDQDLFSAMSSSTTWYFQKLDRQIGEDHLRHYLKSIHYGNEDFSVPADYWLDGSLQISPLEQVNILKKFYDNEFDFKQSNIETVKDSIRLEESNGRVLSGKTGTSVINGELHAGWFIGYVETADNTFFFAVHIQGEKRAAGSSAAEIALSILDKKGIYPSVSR", "experiment": "9-minute test: BlaR-CTD coupled to gold beads, membrane test device, milk", "assay_type": "binding", "settings": "47° C.; for concentration detected in a sample of milk: test carried out in 9 minutes, positive when 1st band less intense than 2nd band; for Intensity 1st band: 9-minute test, scale 0 to 10, reference band 6", "experimental": "(§1) This example illustrates the detection in milk of antibiotics containing a β-lactam ring, which are controlled by the health authorities. The test described in this example uses the BlaR-CTD receptor coupled to gold beads which serve as labelling agents, and uses a support in the form of a test device comprising a solid support to which membranes are attached.\n6 samples of fresh milk containing 0; 4; 6; 8; 10 and 12 ppb of cephapirin, respectively, are prepared. Each of these solutions is then analyzed in the following way.\nA 200 μl aliquot sample of milk and 45.27 μl of solution prepared in Example 1.1.3 are taken and placed in a glass flask. This mixture is incubated for 7 minutes at 47° C. A test device is taken and placed vertically in the glass flask such that the first end of the test device is in contact with the mixture and such that the second end rests on the wall of the glass flask. The mixture is left to migrate on the test device, while incubating the assembly for 2 minutes at 47° C.\nAn intensity value ranging from 0 to 10 is attributed to the bands detected, the value 10 being given to the most intense band and the value 0 being given to the least intense band. According to this scale, a value of 6 is assigned to the reference band. The intensity of the signal observed in the first band is inversely proportional to the amount of cephapirin present in the sample.\n(§2) In this example, when the first band has an intesity less than that of the second band, the test is considered as being positive."}, "[2]": {"target": "T2, BlaR-CTD receptor in the form of two fusion proteins with alkaline phosphatase and peroxidase (Bacillus licheniformis, UniProt P12287)", "T2 construct": "uses the BlaR-CTD receptor in the form of two fusion proteins with alkaline phosphatase and peroxidase, respectively; alkaline phosphatase, chemically coupled (Boehringer-Mannheim 1464752); peroxidase, chemically coupled (Boehringer-Mannheim 1428861)", "T2 sequence (P12287 354-601)": "as above", "experiment": "Example 3: BlaR-CTD fusion proteins with alkaline phosphatase and peroxidase, cephalosporin C microplate, milk", "assay_type": "binding", "settings": "absorbance at 405 nm, 47° C., at the control thresholds required by the US authorities", "excerpt": "This example illustrates the detection in milk of 3 antibiotics containing a β-lactam ring which are controlled by the health authorities. The test described in this example uses the BlaR-CTD receptor in the form of two fusion proteins with alkaline phosphatase and peroxidase, respectively, and uses a support in the form of a microplate.\nPolystyrene microplates with high protein adsorption, of the brand name NUNK (Immuno Plate: Maxisorp type) or of the brand name GREINER (microlon 600, reference 705071), are used. The microplate cuvettes are washed with 150 mM, pH 7.2 PBS buffer. Next, an aliquot of the solution prepared in Example 3.3.1. is incubated for 24 hours at 4° C. in the cuvettes. After incubation, the cuvettes are washed three times with 150 mM, pH 7.2 PBS buffer, 0.1% Tween-20. The tube is then saturated for two hours at 20° C. with 150 mM, pH 7.2 PBS saturation buffer, 5% BSA. After washing three times with washing buffer, the tubes are dried and stored at 4° C. away from moisture.\nFor the cuvettes intended for the BlaR-CTD-alkaline phosphatase recognition agent, the washing buffer used is 1 M, pH 9.8 diethanolamine, 0.5 mM MgCl2: for the cuvettes intended for the BlaR-CTD-peroxidase recognition agent, the washing buffer used is 50 mM, pH 5 potassium phosphate.\n1.4 picomol of labelled recognition agent are incubated in the presence of 100 μl of doped milk for 5 minutes at 47° C. The milk is transferred using a pipette into a cuvette which has been pretreated as indicated in Example 2.3. The milk is then incubated for 2 minutes at 47° C. […] The plate is then placed in an automatic spectrophotometer for ELISA plates, the wavelength being set at 405 nm."}, "[3]": {"test_system": "protein isolated from an antibiotic-sensitive microorganism, such as Bacillus stearothermophilus", "settings": "Example 1 of European Patent Application 593 112; cited from earlier work"}, "[4]": {"target": "T1, BlaR-CTD receptor", "experiment": "20-minute test: BlaR-CTD coupled to gold beads, membrane test device, milk", "assay_type": "binding", "settings": "47° C.; for Intensity 1st band: 20-minute test, scale 0 to 10, reference band 6", "experimental": "as §1\n6 samples of fresh milk containing 0; 20; 30; 40; 50 and 60 ppb of ceftiofur, respectively, are prepared. Each of these solutions is then analyzed in the following way.\nA 200 μl aliquot sample of milk and 45.27 μl of solution prepared in Example 1.1.3 are taken and placed in a glass flask. This mixture is incubated for 18 minutes at 47° C. A test device is taken and placed vertically in the glass flask such that the first end of the test device is in contact with the mixture and such that the second end rests on the wall of the glass flask. The mixture is left to migrate on the test device, while incubating the assembly for 2 minutes at 47° C.\nAn intensity value ranging from 0 to 10 is attributed to the bands detected, the value 10 being given to the most intense band and the value 0 being given to the least intense band. According to this scale, a value of 6 is assigned to the reference band. The intensity of the signal observed in the first band is inversely proportional to the amount of ceftiofur present in the sample.\nIn this example, when the first band has an intensity less than that of the second band, the test is considered as being positive."}, "[5]": {"target": "T1, BlaR-CTD receptor", "experiment": "3-minute rapid test: BlaR-CTD coupled to gold beads, membrane test device, milk", "assay_type": "binding", "settings": "47° C.; for concentration detected in a sample of milk: test carried out in 3 minutes, positive when 1st band less intense than 2nd band; for Intensity 1st band: 3-minute test, scale 0 to 10, reference band 6", "experimental": "as §1\n7 samples of fresh milk containing 0; 1; 2; 3; 4; 5 and 6 ppb of penicillin G, respectively, are prepared. Each of these solutions is then analyzed in the following way:\nA 200 μl aliquot sample of milk and 45.27 μl of solution prepared in Example 1.1.3 are taken and placed in a glass flask. This mixture is incubated for 1 minute at 47° C. A test device is taken and placed vertically in the glass flask such that the first end of the test device is in contact with the mixture and such that the second end rests on the wall of the glass flask. The mixture is left to migrate on the test device, while incubating the assembly for 2 minutes at 47° C.\nAn intensity value ranging from 0 to 10 is attributed to the bands detected, the value 10 being given to the most intense band and the value 0 being given to the least intense band. According to this scale, a value of 6 is assigned to the reference band. The intensity of the signal observed in the first band is inversely proportional to the amount of penicillin G present in the sample.\nas §2"}, "[6]": {"target": "soluble exocellular D-alanyl-D-alanine carboxypeptidase (enzyme R39) (Actinomadura sp., UniProt P39045)", "sequence (P39045 50-515)": "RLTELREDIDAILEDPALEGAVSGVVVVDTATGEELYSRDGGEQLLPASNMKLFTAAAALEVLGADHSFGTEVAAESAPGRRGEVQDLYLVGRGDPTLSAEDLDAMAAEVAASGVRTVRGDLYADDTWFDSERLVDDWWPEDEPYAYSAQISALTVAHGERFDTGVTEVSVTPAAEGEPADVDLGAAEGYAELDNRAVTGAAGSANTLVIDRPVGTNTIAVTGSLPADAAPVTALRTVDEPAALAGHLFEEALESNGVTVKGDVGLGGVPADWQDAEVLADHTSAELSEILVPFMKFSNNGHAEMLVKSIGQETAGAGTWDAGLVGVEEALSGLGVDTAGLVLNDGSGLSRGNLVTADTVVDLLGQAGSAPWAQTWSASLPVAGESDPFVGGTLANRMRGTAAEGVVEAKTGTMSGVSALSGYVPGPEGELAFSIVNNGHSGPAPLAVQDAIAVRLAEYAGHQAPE", "settings": "cited from earlier work"}}, "note": "Read-outs that look alike come from different tables or passages of the source."}
{"smiles": "CO/N=C(\\C(=O)N[C@@H]1C(=O)N2C(C(=O)O)=C(CSC(=O)c3ccco3)CS[C@H]12)c1csc(N)n1", "note": "[ceftiofur]", "values": [{"measurement": "concentration detected in a sample of milk", "setting": "[1]", "value": 80, "unit": "ppb"}, {"measurement": "concentration detected in milk", "setting": "[2]", "value": 50, "unit": "ppb"}, {"measurement": "concentration detected", "setting": "[3]", "value": 5, "unit": "ppb"}, {"measurement": "Intensity 1st band", "setting": "[4]; 20 ppb ceftiofur in milk", "value": 6}, {"measurement": "Intensity 1st band", "setting": "[4]; 30 ppb ceftiofur in milk", "value": 5}, {"measurement": "Intensity 1st band", "setting": "[4]; 40 ppb ceftiofur in milk", "value": 4}, {"measurement": "Intensity 1st band", "setting": "[4]; 50 ppb ceftiofur in milk", "value": 3}, {"measurement": "Intensity 1st band", "setting": "[4]; 60 ppb ceftiofur in milk", "value": 3}, {"measurement": "concentration detected in a sample of milk", "setting": "[4]; test in 20 minutes, positive when 1st band less intense than 2nd band", "value": 30, "unit": "ppb"}]}
{"smiles": "CC(=O)OCC1=C(C(=O)O)N2C(=O)[C@@H](NC(=O)CSc3ccncc3)[C@H]2SC1", "note": "[cephapirin]", "values": [{"measurement": "Intensity 1st band", "setting": "[1]; 4 ppb cephapirin in milk", "value": 6}, {"measurement": "Intensity 1st band", "setting": "[1]; 6 ppb cephapirin in milk", "value": 5}, {"measurement": "Intensity 1st band", "setting": "[1]; 8 ppb cephapirin in milk", "value": 4}, {"measurement": "Intensity 1st band", "setting": "[1]; 10 ppb cephapirin in milk", "value": 3}, {"measurement": "Intensity 1st band", "setting": "[1]; 12 ppb cephapirin in milk", "value": 3}, {"measurement": "concentration detected in a sample of milk", "setting": "[1]", "value": 6, "unit": "ppb"}, {"measurement": "concentration detected in a sample of milk", "setting": "[5]", "value": 20, "unit": "ppb"}, {"measurement": "concentration detected", "setting": "[3]", "value": 5, "unit": "ppb"}]}
{"smiles": "CC1(C)S[C@@H]2[C@H](NC(=O)Cc3ccccc3)C(=O)N2[C@H]1C(=O)O", "note": "[penicillin G]", "values": [{"measurement": "concentration detected in a sample of milk", "setting": "[1]", "value": 3, "unit": "ppb"}, {"measurement": "concentration detected in milk", "setting": "[2]", "value": 5, "unit": "ppb"}, {"measurement": "Intensity 1st band", "setting": "[5]; 1 ppb penicillin G in milk", "value": 9}, {"measurement": "Intensity 1st band", "setting": "[5]; 2 ppb penicillin G in milk", "value": 9}, {"measurement": "Intensity 1st band", "setting": "[5]; 3 ppb penicillin G in milk", "value": 4}, {"measurement": "Intensity 1st band", "setting": "[5]; 4 ppb penicillin G in milk", "value": 0}, {"measurement": "Intensity 1st band", "setting": "[5]; 5 ppb penicillin G in milk", "value": 0}, {"measurement": "Intensity 1st band", "setting": "[5]; 6 ppb penicillin G in milk", "value": 0}, {"measurement": "concentration detected in a sample of milk", "setting": "[5]", "value": "less than 4 ppb"}, {"measurement": "concentration determined in milk", "setting": "[6]; total incubation time of 5 minutes", "value": 10, "unit": "ppb"}, {"measurement": "concentration determined in milk", "setting": "[6]; total incubation time of 15 minutes", "value": "about 2.5 ppb"}, {"measurement": "concentration detected", "setting": "[3]", "value": "~5", "unit": "ppb"}]}
